Where “and” joins values, the source holds several entries; their conditions need not be identical. Identical values can stand only once. Like-named read-outs stand apart in the source and are kept apart here.
Columns and labels:
[1] = tested on: NCI-H358 cells (K-Ras G12C); assay: Potency assay: pERK in NCI-H358 cells; assay type: cell-based, human; details: H358 KRAS G12C, read-out: pERK EC50
Outline: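 Compounds are dosed as ten 3-fold dilutions from a 10 mM DMSO stock, in duplicate, and left on cells for 4 h at 37 °C, 5% CO2. Phospho-ERK1/2 is then quantified by AlphaLISA SureFire Ultra or In-Cell Western, and IC50 is derived from a 4-parameter sigmoid against log concentration.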

K-Ras G12C = K-Ras G12C (Homo sapiens (Human), UniProt P01116+P62937, G12C); assay: Ras-Raf (BRAF RBD) disruption / FRET / MOA assay, KRAS G12C; assay type: biochemical; details: KRAS G12C; Ras-Raf disruption/FRET/MOA assay; read-out: IC50* KRAS G12C FRET data
Chain of K-Ras G12C (P01116-2 other isoform, or with tags, fused parts or gaps G12C): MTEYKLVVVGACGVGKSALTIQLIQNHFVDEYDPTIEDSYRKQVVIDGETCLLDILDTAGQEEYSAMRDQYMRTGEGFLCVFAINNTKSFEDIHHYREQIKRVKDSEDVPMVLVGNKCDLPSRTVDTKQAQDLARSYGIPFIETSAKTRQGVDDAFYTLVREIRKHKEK
Chain of K-Ras G12C (P62937 whole entry): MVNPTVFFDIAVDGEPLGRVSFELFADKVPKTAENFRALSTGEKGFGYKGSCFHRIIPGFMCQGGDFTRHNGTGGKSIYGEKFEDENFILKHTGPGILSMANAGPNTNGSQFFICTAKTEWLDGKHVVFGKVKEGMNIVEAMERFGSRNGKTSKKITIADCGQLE
Outline: (§1)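 Ternary complex formation (Ras–compound–cyclophilin A) displacing BRAF RBD, monitored by TR-FRET. Three hours at 25° C with compound (top 30 μM final), then 1.5 h with the labelled antibodies. Lower ratio than DMSO indicates disruption; IC50 reported.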

K-Ras G13C = K-Ras G13C (Homo sapiens (Human), UniProt P01116+P62937, G13C); assay: Ras-Raf (BRAF RBD) disruption / FRET / MOA assay, KRAS G13C; assay type: biochemical; details: KRAS G13C; Ras-Raf disruption/FRET/MOA assay; read-out: IC50* KRAS G13C FRET data
Chain of K-Ras G13C (P01116-2 other isoform, or with tags, fused parts or gaps G13C): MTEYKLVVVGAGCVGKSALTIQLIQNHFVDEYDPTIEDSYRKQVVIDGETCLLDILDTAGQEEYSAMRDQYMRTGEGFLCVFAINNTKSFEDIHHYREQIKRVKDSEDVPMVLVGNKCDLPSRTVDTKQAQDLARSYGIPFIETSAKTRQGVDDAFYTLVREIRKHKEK
Chain of K-Ras G13C (P62937 whole entry): as the sequence (P62937 whole entry) above
Outline: as §1

KRAS G12S = KRAS G12S (Homo sapiens (Human), UniProt P01116+P62937, G12S); assay: Ras-Raf (BRAF RBD) disruption / FRET / MOA assay, KRAS G12S; assay type: biochemical; details: Ras-Raf disruption/FRET/MOA assay; class symbols; read-out: KRAS G12S FRET data IC50
Chain of KRAS G12S (P01116-2 other isoform, or with tags, fused parts or gaps G12S): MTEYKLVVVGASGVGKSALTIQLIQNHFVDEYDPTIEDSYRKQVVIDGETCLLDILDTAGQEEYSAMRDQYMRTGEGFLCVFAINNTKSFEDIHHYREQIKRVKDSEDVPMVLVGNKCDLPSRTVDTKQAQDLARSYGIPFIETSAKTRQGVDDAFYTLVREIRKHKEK
Chain of KRAS G12S (P62937 whole entry): as the sequence (P62937 whole entry) above
Outline: as §1

KRAS G12D = KRAS G12D (Homo sapiens (Human), UniProt P01116+P62937, G12D); assay: Ras-Raf (BRAF RBD) disruption / FRET / MOA assay, KRAS G12D; assay type: biochemical; details: Ras-Raf disruption/FRET/MOA assay; class symbols; read-out: KRAS G12D FRET data IC50
Chain of KRAS G12D (P01116-2 other isoform, or with tags, fused parts or gaps G12D): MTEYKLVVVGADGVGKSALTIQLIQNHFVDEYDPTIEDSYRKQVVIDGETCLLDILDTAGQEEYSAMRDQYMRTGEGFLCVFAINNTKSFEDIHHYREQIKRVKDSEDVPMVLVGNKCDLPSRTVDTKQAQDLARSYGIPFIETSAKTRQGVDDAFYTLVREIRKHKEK
Chain of KRAS G12D (P62937 whole entry): as the sequence (P62937 whole entry) above
Outline: as §1

KRAS G12V = KRAS G12V (Homo sapiens (Human), UniProt P01116+P62937, G12V); assay: Ras-Raf (BRAF RBD) disruption / FRET / MOA assay, KRAS G12V; assay type: biochemical; details: read-out: IC50* KRAS G12V FRET data
Chain of KRAS G12V (P01116-2 other isoform, or with tags, fused parts or gaps G12V): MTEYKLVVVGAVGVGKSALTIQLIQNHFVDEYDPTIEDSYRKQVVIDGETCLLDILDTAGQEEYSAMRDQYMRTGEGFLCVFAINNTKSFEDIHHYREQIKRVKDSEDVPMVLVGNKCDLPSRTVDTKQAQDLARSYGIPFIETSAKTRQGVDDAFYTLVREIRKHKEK
Chain of KRAS G12V (P62937 whole entry): as the sequence (P62937 whole entry) above
Outline: as §1

KRAS WT = KRAS WT (Homo sapiens (Human), UniProt P01116+P62937); assay: Ras-Raf (BRAF RBD) disruption / FRET / MOA assay, KRAS WT; assay type: biochemical; details: read-out: IC50* KRAS WT FRET data
Chain of KRAS WT (P01116-2 other isoform, or with tags, fused parts or gaps): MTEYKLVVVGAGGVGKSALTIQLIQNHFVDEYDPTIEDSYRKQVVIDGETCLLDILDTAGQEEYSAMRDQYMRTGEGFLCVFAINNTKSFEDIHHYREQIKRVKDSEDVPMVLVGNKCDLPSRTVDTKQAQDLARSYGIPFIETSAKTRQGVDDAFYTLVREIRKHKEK
Chain of KRAS WT (P62937 whole entry): as the sequence (P62937 whole entry) above
Outline: as §1

KRAS G13D = KRAS G13D (Homo sapiens (Human), UniProt P01116+P62937, G13D); assay: Ras-Raf (BRAF RBD) disruption / FRET / MOA assay, KRAS G13D; assay type: biochemical; details: read-out: IC50* KRAS G13D FRET data
Chain of KRAS G13D (P01116-2 other isoform, or with tags, fused parts or gaps G13D): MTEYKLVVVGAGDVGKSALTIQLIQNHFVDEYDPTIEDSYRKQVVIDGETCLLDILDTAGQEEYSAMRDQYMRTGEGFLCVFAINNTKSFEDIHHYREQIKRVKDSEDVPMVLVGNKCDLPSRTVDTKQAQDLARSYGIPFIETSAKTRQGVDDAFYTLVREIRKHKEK
Chain of KRAS G13D (P62937 whole entry, canonical isoform): as the sequence (P62937 whole entry) above
Description: (§2) The purpose of this biochemical assay is to measure the ability of test compounds to facilitate ternary complex formation between a nucleotide-loaded Ras isoform and cyclophilin A; the resulting ternary complex disrupts binding to a BRAF^RBD construct, inhibiting Ras signaling through a RAF effector.
(§3) Compound is present in plate wells as a 10-point 3-fold dilution series starting at a final concentration of 30 μM. After incubation at 25° C. for 3 hours, a mixture of Anti-His Eu-W1024 and anti-GST allophycocyanin is then added to assay sample wells at final concentrations of 10 nM and 50 nM, respectively, and the reaction incubated for an additional 1.5 hours. […] Compounds that facilitate disruption of a Ras:RAF complex are identified as those eliciting a decrease in the TR-FRET ratio relative to DMSO control wells.
This protocol may also be executed substituting other Ras proteins or nucleotides.
The purpose of this biochemical assay was to measure the ability of test compounds to facilitate ternary complex formation between a nucleotide-loaded K-Ras isoform and Cyclophilin A; the resulting ternary complex disrupts binding to a BRAF^RBD construct, inhibiting K-Ras signaling through a RAF effector. Data is reported as IC50 values.
as §3, with “Compound was” for “Compound is”, “allophycocyanin was” for “allophycocyanin is”, “a K-Ras:RAF” for “a Ras:RAF”, “complex were” for “complex are”

NRAS G12C = NRAS G12C (Homo sapiens (Human), UniProt P01111+P62937, G12C); assay: Ras-Raf (BRAF RBD) disruption / FRET / MOA assay, NRAS G12C; assay type: biochemical; details: read-out: IC50* NRAS G12C FRET data
Chain of NRAS G12C (P01111 whole entry G12C): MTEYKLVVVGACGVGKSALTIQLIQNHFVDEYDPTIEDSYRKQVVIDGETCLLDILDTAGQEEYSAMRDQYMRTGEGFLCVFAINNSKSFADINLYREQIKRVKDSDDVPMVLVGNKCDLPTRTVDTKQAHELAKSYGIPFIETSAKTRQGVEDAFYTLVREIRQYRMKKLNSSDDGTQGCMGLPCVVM
Chain of NRAS G12C (P62937 whole entry): as the sequence (P62937 whole entry) above
Description: as §2, §3
This protocol may also be executed substituting other Ras proteins or nucleotides. […]

EC50 ([1]; Homo sapiens, NCI-H358) [nM]	IC50 (K-Ras G12C)	IC50 (K-Ras G13C)	IC50 (KRAS G12S)	IC50 (KRAS G12D)	IC50 (KRAS G12V)	IC50 (KRAS WT)	IC50 (KRAS G13D)	IC50 (NRAS G12C)	SMILES	EC50 [1] [nM]
< 5000	10 to 100 nM and 100 to 1000 nM	10 to 100 nM and 100 to 1000 nM	100 to 1000 nM	1000 to 10000 nM and 100 to 1000 nM	100 to 1000 nM and 1000 to 10000 nM	1000 to 10000 nM and 10 to 100 nM	100 to 1000 nM and 10 to 100 nM	10 to 100 nM and 100 to 1000 nM	CCn1c(-c2cccnc2[C@H](C)OC)c2c3cc(ccc31)-c1cc(O)cc(c1)C[C@H](NC(=O)[C@H](C(C)C)N(C)C(=O)C1CCN(C(=O)/C=C/CN(C)C)CC1)C(=O)N1CCC[C@H](N1)C(=O)OCC(C)(C)C2 (atropisomer, axis not shown) [Example A261]	–
< 5000	1 µM to 10 µM and > 10 µM (2×)	> 10 µM (2×) and 1 µM to 10 µM	> 10000 nM	> 10000 nM	> 10000 nM	> 10000 nM	> 10000 nM	1 µM to 10 µM and > 10 µM (2×)	C=CC(=O)N1CC[C@H](C(=O)N(C)[C@H](C(=O)N[C@H]2Cc3nc(cs3)-c3ccc4c(c3)c(c(-c3cccnc3[C@H](C)OC)n4CC)CC(C)(C)COC(=O)[C@@H]3CCCN(N3)C2=O)C(C)C)C1 (atropisomer, axis not shown) [Example A279]	–
< 5000	10 nM to 100 nM and 1 µM to 10 µM (2×)	10 nM to 100 nM and 1 µM to 10 µM (2×)	1 µM to 10 µM and > 10 µM (2×)	> 10000 nM	1 µM to 10 µM and > 10 µM (2×)	1 µM to 10 µM and > 10 µM (2×)	> 10000 nM	100 to 1000 nM and 1000 to 10000 nM and > 10000 nM	C=CS(=O)(=O)N1CC[C@H](C(=O)N(C)[C@H](C(=O)N[C@H]2Cc3nc(cs3)-c3ccc4c(c3)c(c(-c3cccnc3[C@H](C)OC)n4CC)CC(C)(C)COC(=O)[C@@H]3CCCN(N3)C2=O)C(C)C)C1 (atropisomer, axis not shown) [Example A283]	–
< 5000	< 10 nM	< 10 nM	10 to 100 nM	100 to 1000 nM	100 to 1000 nM	10 to 100 nM	10 to 100 nM	< 10 nM	C=CC(=O)N1CC2(CCN([C@H](C(=O)N[C@H]3Cc4cc(O)cc(c4)-c4ccc5c(c4)c(c(-c4cccnc4[C@H](C)OC)n5CC)CC(C)(C)COC(=O)[C@@H]4CCCN(N4)C3=O)C(C)C)C2=O)C1 (atropisomer, axis not shown) [Example A294]	–
< 5000	100 to 1000 nM	100 to 1000 nM	1000 to 10000 nM	1000 to 10000 nM	1000 to 10000 nM	1000 to 10000 nM	1000 to 10000 nM	100 to 1000 nM	C=CC(=O)N1CC[C@@H](C(=O)N(C)[C@H](C(=O)N[C@H]2Cc3cccc(c3)-c3ccc4c(c3)c(c(-c3cccnc3[C@H](C)OC)n4CC)CC(C)(C)COC(=O)[C@@H]3CCCN(N3)C2=O)C(C)C)C1 (atropisomer, axis not shown) [Example A488]	–
–	100 to 1000 nM	1000 to 10000 nM	1000 to 10000 nM	1000 to 10000 nM	1000 to 10000 nM	1000 to 10000 nM	1000 to 10000 nM	100 to 1000 nM	C=CC(=O)N1CC[C@H](C(=O)N(C)[C@H](C(=O)N[C@H]2Cc3nc(cs3)-c3ccc4c(c3)c(c(-c3cc(C5=CCN(C)CC5)cnc3[C@H](C)OC)n4CC)CC(C)(C)COC(=O)[C@@H]3CCCN(N3)C2=O)C(C)C)C1 (atropisomer, axis not shown) [Example A520]	< 5000
< 5000	< 10 nM	100 to 1000 nM	> 10000 nM	1000 to 10000 nM	> 10000 nM	> 10000 nM	1000 to 10000 nM	< 10 nM	CCn1c(-c2cnccc2COC)c2c3cc(ccc31)-c1ccnc(c1)C[C@H](NC(=O)[C@H](C(C)C)N(C)C(=O)[C@H]1CCN(C(=O)C#CCN(C)C)C1)C(=O)N1CCC[C@H](N1)C(=O)OCC(C)(C)C2 [Example A130]	–
< 5000	10 to 100 nM and 100 to 1000 nM	1000 to 10000 nM	> 10000 nM	1000 to 10000 nM	> 10000 nM	> 10000 nM	1000 to 10000 nM	10 to 100 nM and 100 to 1000 nM	CCn1c(-c2cncnc2)c2c3cc(ccc31)-c1cccc(c1)C[C@H](NC(=O)[C@H](C(C)C)N(C)C(=O)[C@H]1CCN(C(=O)C#CCN(C)C)C1)C(=O)N1CCC[C@H](N1)C(=O)OCC(C)(C)C2 [Example A144]	–
< 5000	10 to 100 nM and < 10 nM	10 to 100 nM and 100 to 1000 nM	100 to 1000 nM and > 10000 nM	1000 to 10000 nM and > 10000 nM	100 to 1000 nM and > 10000 nM	1000 to 10000 nM and > 10000 nM	100 to 1000 nM and > 10000 nM	10 to 100 nM and < 10 nM	CCn1c(-c2cccnc2COC)c2c3cc(ccc31)-c1cc(O)cc(c1)C[C@H](NC(=O)[C@H](C(C)C)N(C)C(=O)[C@H]1CCN(C(=O)C#C[C@@H]3CCCN3C)C1)C(=O)N1CCC[C@H](N1)C(=O)OCC(C)(C)C2 [Example A196]	–
< 5000	10 to 100 nM and < 10 nM	100 to 1000 nM and > 10000 nM	1000 to 10000 nM and > 10000 nM	> 10000 nM	100 to 1000 nM and > 10000 nM	1000 to 10000 nM and > 10000 nM	1000 to 10000 nM and > 10000 nM	100 to 1000 nM and < 10 nM	CCn1c(-c2cccnc2COC)c2c3cc(ccc31)-c1cc(O)cc(c1)C[C@H](NC(=O)[C@H](C(C)C)N(C)C(=O)[C@H]1CCN(C(=O)C#CCN3[C@@H](C)COC[C@@H]3C)C1)C(=O)N1CCC[C@H](N1)C(=O)OCC(C)(C)C2 [Example A209]	–

SMILES	EC50 ([1]; Homo sapiens, NCI-H358) [nM]	IC50 (K-Ras G12C)	IC50 (K-Ras G13C)	IC50 (KRAS G12S)	IC50 (KRAS G12D)	IC50 (KRAS G12V)	IC50 (KRAS WT)	IC50 (KRAS G13D)	IC50 (NRAS G12C)	EC50 [1] [nM]
CCn1c(-c2cccnc2[C@H](C)OC)c2c3cc(ccc31)-c1cccc(c1)C[C@H](NC(=O)[C@H](C(C)C)N(C)C(=O)[C@H]1CCN(C(=O)C#CC(C)(C)N3CCC(F)(F)C3)C1)C(=O)N1CCC[C@H](N1)C(=O)OCC(C)(C)C2 (atropisomer, axis not shown) [Example A325]	< 5000	1000 to 10000 nM	1000 to 10000 nM	1000 to 10000 nM	> 10000 nM	1000 to 10000 nM	> 10000 nM	> 10000 nM	1000 to 10000 nM	–
CCn1c(-c2cccnc2[C@H](C)OC)c2c3cc(ccc31)-c1cc(cc(C(F)F)c1)C[C@H](NC(=O)[C@H](C(C)C)N(C)C(=O)[C@H]1CCN(C(=O)C#CC(C)(C)N3CCC3)C1)C(=O)N1CCC[C@H](N1)C(=O)OCC(C)(C)C2 (atropisomer, axis not shown) [Example A466]	< 5000	10 to 100 nM	100 to 1000 nM	1000 to 10000 nM	> 10000 nM	1000 to 10000 nM	1000 to 10000 nM	1000 to 10000 nM	10 to 100 nM	–
C=CC(=O)N1CC[C@H](C(=O)N(C)[C@H](C(=O)N[C@H]2Cc3cccc(c3)-c3ccc4c(c3)c(c(-c3cc(C5CCN(C)CC5)cnc3[C@H](C)OC)n4CC)CC(C)(C)COC(=O)[C@@H]3CCCN(N3)C2=O)C(C)C)C1 (atropisomer, axis not shown) [Example A515]	< 5000	10 to 100 nM	100 to 1000 nM	100 to 1000 nM	1000 to 10000 nM	1000 to 10000 nM	1000 to 10000 nM	1000 to 10000 nM	10 to 100 nM	–
C=CC(=O)Nc1cnc(C(=O)N(C)[C@H](C(=O)N[C@H]2Cc3cccc(c3)-c3ccc4c(c3)c(c(-c3cccnc3[C@H](C)OC)n4CC)CC(C)(C)COC(=O)[C@@H]3CCCN(N3)C2=O)C(C)C)n1C (atropisomer, axis not shown) [Example A525]	–	10 to 100 nM	10 to 100 nM	1000 to 10000 nM	1000 to 10000 nM	1000 to 10000 nM	1000 to 10000 nM	1000 to 10000 nM	10 to 100 nM	< 5000
